Experimental data from publication PMC7884711, “Identification of efficient prokaryotic cell-penetrating peptides with applications in bacterial biotechnology” (Communications Biology, 2021).

B1: Cre recombinase (No CPP): Cre recombinase without CPP, control (protein, UniProt P06956 1-343, looked up)
Recombinase cre: MSNLLTVHQNLPALPVDATSDEVRKNLMDMFRDRQAFSEHTWKMLLSVCRSWAAWCKLNNRKWFPAEPEDVRDYLLYLQARGLAVKTIQQHLGQLNMLHRRSGLPRPSDSNAVSLVMRRIRKENVDAGERAKQALAFERTDFDQVRSLMENSDRCQDIRNLAFLGIAYNTLLRIAEIARIRVKDISRTDGGRMLIHIGRTKTLVSTAGVEKALSLGVTKLVERWISVSGVADDPNNYLFCRVRKNGVAAPSATSQLSTRALEGIFEATHRLIYGAKDDSGQRYLAWSGHSARVGAARDMARAGVSIPEIMQAGGWTNVNIVMNYIRNLDSETGAMVRLLEDGD

Key:
HEK293 cells = conditions: literature knowledge; cited from earlier work
From the text: To date, mostly CPPs have been studied and utilized in mammalian cells, but in this study, we studied CPPs in bacteria, E. coli. Thus, it would be very useful to find the similarities and differences of CPPs between prokaryotes and eukaryotes.

E. coli DH5α cells [1] = assay: Inhibition of bacterial cell growth by CPPs (Max OD600 relative to control); assay type: cell-based, Escherichia coli; conditions: for Max OD (%) (Figure 3f): E. coli DH5α diluted 1/1000 in LB, 5 μg TAMRA-CPP (0.1 μg/μL), OD600 monitored 18 h, max OD of treated cells / max OD of control cells
Method: E. coli DH5α cells were grown until OD600 = 1 at 37 °C with shaking at 200 rpm. […] Then, cell growth (OD600) was monitored for 18 h by using the Synergy^TM H1 hybrid multi-mode microplate reader (BioTek, Vermont, USA). As a control, we used E. coli cells that were not treated with CPPs.

E. coli DH5α cells [2] = assay: Penetration efficiency of TAMRA-labeled CPPs, chemical (CaCl2) treatment method, flow cytometry; assay type: cell-based, Escherichia coli; conditions: TAMRA fluorescence intensity in E. coli, library screen of 98 CPPs
From the text: (§1) (Fig. 2a). […] First, we prepared electrocompetent and chemically competent cells.

E. coli DH5α cells [3] = assay: Penetration efficiency of TAMRA-labeled CPPs, electroporation-based method, flow cytometry; assay type: cell-based, Escherichia coli; conditions: library CPPs, E. coli, electroporation, Tris buffer pH 7.5, 1 h, mean of n = 3–5
From the text: as §1

Methylomonas sp. DH-1 = assay: Marker gene excision using CPP-conjugated Cre recombinase; assay type: cell-based; conditions: Methylomonas sp. DH-1, 50 μL protein (0.05 μg/μL), electroporation, 4 mM NiCl2 selection
Method: For the marker gene excision experiment, the pIns-LKTL plasmid was transformed into Methylomonas sp. DH-1, and then the marker genes flanked with loxP sites (loxP-kan^R-tetA-loxP) were integrated into a non-coding region of the Methylomonas sp. DH-1 genome. To select correctly knocked-in cells, the transformed cells were grown on an NMS agar plate containing kanamycin (10 μg/mL) and 30% methane for 3–7 days. The knocked-in cells were harvested from the plate and washed twice with distilled water, and 50 μL of cell suspension was mixed with 50 μL of CPP-conjugated Cre recombinase (0.05 μg/μL). […] After electroporation, cells were incubated in two types of recovery buffers (20 mM Tris-HCl at pH 7.5 or NMS medium) for 3 h and then spread on NMS agar plates containing 4 mM NiCl2. The colonies grown on the NiCl2 plates were transferred to an NMS agar plate and a kanamycin-containing NMS agar plate to confirm the excision of the marker genes.

Row | Molecule | Efficiency as CPP in mammalian cells (HEK293 cells) | Max OD (%) (Figure 3f) (E. coli DH5α cells [1]; replicate 1) | Max OD (%) (Figure 3f) (E. coli DH5α cells [1]; replicate 2) | Max OD (%) (Figure 3f) (E. coli DH5α cells [1]; replicate 3) | Growth rate (%) (E. coli DH5α cells [1]; E. coli growth with CPP, relative to control) | Anti-bacterial activity (E. coli DH5α cells [1]; class (Cytotoxic / Safe), cutoff of 50%) | Penetration efficiency (TAMRA FI) (E. coli DH5α cells [2]) | Penetration efficiency (TAMRA fluorescence in E. coli) (E. coli DH5α cells [3]) | Marker excision efficiency (%) (Methylomonas sp. DH-1; recovery in NMS buffer 3 h, replicate 1) | Marker excision efficiency (%) (Methylomonas sp. DH-1; recovery in NMS buffer 3 h, replicate 2) | Marker excision efficiency (%) (Methylomonas sp. DH-1; recovery in NMS buffer 3 h, replicate 3) | Marker excision efficiency (%) (Methylomonas sp. DH-1; recovery in Tris-Cl buffer 3 h, replicate 1) | Marker excision efficiency (%) (Methylomonas sp. DH-1; recovery in Tris-Cl buffer 3 h, replicate 2) | Marker excision efficiency (%) (Methylomonas sp. DH-1; recovery in Tris-Cl buffer 3 h, replicate 3)
1 | KLPVM [CPP 63, TAMRA-labeled CPP of the 98-CPP library] | highly efficient | 69.833 | 72.8601 | 66.2839 | 69.659 | Safe | 26.6874 | low efficiency | – | – | – | – | – | –
2 | B1 | – | – | – | – | – | – | – | – | 10.353 | 9.156 | 9.01 | 1.75 | 2.19 | 1.75
